Results on 14 compounds are retold here after paper PMC6072100, “Exploring the links between peptoid antibacterial activity and toxicity” (MedChemComm, 2017).

The structures appear in SMILES notation. Several values for one entry are separate records, joined by “and”; a condition that tells them apart may be missing. Equal values may be shown once. Read-outs that look alike come from different tables or passages of the source. Square brackets hold non-standard residues; d marks the D form. Peptide text beside a SMILES is read from it. N(4-F-Bzl)Gly = O=C(O)CNCc1ccc(F)cc1; Gly(N-(CH2)6NH2) = NCCCCCCNCC(=O)O; Gly(N-2-aminoethyl) = NCCNCC(=O)O; Nspe = C[C@H](NCC(=O)O)c1ccccc1; NhArg = N=C(N)NCCCCNCC(=O)O; Nphe = O=C(O)CNCc1ccccc1; Nlys = NCCCCNCC(=O)O

Common to all, as to type: cell-based
Assay [1] has as its system Escherichia coli K-12 wild-type strain (W3110/ATCC27325). Conditions: for MIC E. coli: lowest concentration completely inhibiting growth, 37 °C, 16 h, range 2–100 μM. Summed up:
(§1)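 Peptoids (DMSO stock, final 2–100 μM, two-fold steps) were tested in triplicate against inocula at 0.5 McFarland (A650 0.07) diluted ten-fold in Iso-sensitest broth. Plates incubated 16 h at 37 °C, shaken; MIC from absorbance. Controls: ampicillin, DMSO series, sterile broth.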

Assay [2] deals with Pseudomonas aeruginosa PA01 (ATCC 15692). Summed up:
as §1

For assay [3], the system named is Staphylococcus epidermidis (laboratory strain from clinical isolate). Conditions: for MIC S. epidermidis: 16 h. The procedure, abridged:
as §1

The subject of assay [4] is Staphylococcus aureus (3R7089 strain Oxford/ATCC9144). The procedure, abridged:
as §1

Setting [5] is: lowest concentration completely inhibiting growth, 37 °C, 16 h, range 2–100 μM.
Where [6] appears, read: lowest concentration completely inhibiting growth, 37 °C, range 2–100 μM.
The mark [7] stands for this setting: laboratory strain from clinical isolate.

Regarding `CCCCCNCC(=O)N(CC(=O)N(CC(=O)N(CCCCN)CC(=O)N(CC(=O)N(CC(=O)N(CCCCN)CC(=O)N(CC(=O)N(CC(=O)N(CCCCN)CC(=O)N(CC(=O)N(CC(N)=O)[C@@H](C)c1ccccc1)[C@@H](C)c1ccccc1)[C@@H](C)c1ccccc1)[C@@H](C)c1ccccc1)[C@@H](C)c1ccccc1)[C@@H](C)c1ccccc1)[C@@H](C)c1ccccc1)[C@@H](C)c1ccccc1` [Peptoid 30, (NamyNspeNspe)[(NLysNspeNspe)]3], the “MIC E. coli” value in assay [1] was 50 µM. The “MIC P. aeruginosa” value in assay [2] (setting [5]) came out at 50 µM. Besides, the “MIC S. epidermidis” value in assay [3] (setting [6]) turned out to be 2 µM. Moreover, in assay [4] (setting [5]), the “MIC S. aureus” value was determined as 2 µM.
Turning to `CCCCCNCC(=O)N(CC(=O)N(CC(=O)N(CCCCC)CC(=O)N(CC(=O)N(CC(=O)N(CCCCN)CC(=O)N(CC(=O)N(CC(=O)N(CCCCN)CC(=O)N(CC(=O)N(CC(N)=O)[C@@H](C)c1ccccc1)[C@@H](C)c1ccccc1)[C@@H](C)c1ccccc1)[C@@H](C)c1ccccc1)[C@@H](C)c1ccccc1)[C@@H](C)c1ccccc1)[C@@H](C)c1ccccc1)[C@@H](C)c1ccccc1` [Peptoid 31, (NamyNspeNspe)2(NLysNspeNspe)2], the “MIC E. coli” value in assay [1] was over 100 µM. For the same compound, the “MIC P. aeruginosa” value in assay [2] (ATCC 15692, 16 h) was over 100 µM; in assay [2] (setting [5]) it was 100 µM. In assay [3] (setting [6]), the “MIC S. epidermidis” value was 1 µM. For the same compound, in assay [4] (setting [5]), the “MIC S. aureus” value worked out at 2 µM.
Consider `NCCCCCCNCC(=O)N(CC(=O)N(CC(=O)N(CCCCCCN)CC(=O)N(CC(=O)N(CC(N)=O)Cc1ccccc1)Cc1ccccc1)Cc1ccccc1)Cc1ccccc1` [Peptoid 3, (NahNpheNphe)2] (H-[Gly(N-(CH2)6NH2)][Nphe][Nphe][Gly(N-(CH2)6NH2)][Nphe][Nphe]-NH2), for which, in assay [1], the “MIC E. coli” value was over 100 µM. The “MIC P. aeruginosa” value in assay [2] (ATCC 15692, 16 h) is over 100 µM. For the same compound, the “MIC S. epidermidis” value in assay [3] (setting [7]) is over 100 µM. Further, in assay [4] (ATCC9144, 16 h), the “MIC S. aureus” value was over 100 µM.
Consider `NCCCCNCC(=O)N(CC(=O)N(CC(=O)N(CCCCN)CC(=O)N(CC(=O)N(CC(N)=O)Cc1ccccc1)Cc1ccccc1)Cc1ccccc1)Cc1ccccc1` [Peptoid 6, (NLysNpheNphe)2] (H-[Nlys][Nphe][Nphe][Nlys][Nphe][Nphe]-NH2), for which, in assay [1], the “MIC E. coli” value is over 100 µM. In addition, the “MIC P. aeruginosa” value was over 100 µM in assay [2] (ATCC 15692, 16 h) and 100 µM in assay [2] (setting [5]). Moreover, the “MIC S. epidermidis” value in assay [3] (setting [7]) is over 100 µM; in assay [3] (setting [6]), 100 µM. The “MIC S. aureus” value was over 100 µM in assay [4] (ATCC9144, 16 h) and 100 µM in assay [4] (setting [5]).
As for `C[C@@H](c1ccccc1)N(CC(N)=O)C(=O)CN(C(=O)CN(CCN)C(=O)CN(C(=O)CN(C(=O)CN(CCN)C(=O)CN(C(=O)CN(C(=O)CNCCN)[C@@H](C)c1ccccc1)[C@@H](C)c1ccccc1)[C@@H](C)c1ccccc1)[C@@H](C)c1ccccc1)[C@@H](C)c1ccccc1` [Peptoid 17, (NaeNspeNspe)3], the “MIC E. coli” value in assay [1] came to 25 µM. Moreover, the “MIC P. aeruginosa” value in assay [2] (setting [5]) was 100 µM and > 100 µM. The “MIC S. epidermidis” value in assay [3] (setting [6]) was 13 µM. In addition, the “MIC S. aureus” value in assay [4] (setting [5]) was 2 µM.
Take `C[C@@H](c1ccccc1)N(CC(N)=O)C(=O)CN(C(=O)CN(CCCCCCN)C(=O)CN(C(=O)CN(C(=O)CN(CCCCCCN)C(=O)CN(C(=O)CN(C(=O)CN(CCCCCCN)C(=O)CN(C(=O)CN(C(=O)CNCCCCCCN)[C@@H](C)c1ccccc1)[C@@H](C)c1ccccc1)[C@@H](C)c1ccccc1)[C@@H](C)c1ccccc1)[C@@H](C)c1ccccc1)[C@@H](C)c1ccccc1)[C@@H](C)c1ccccc1` [Peptoid 10, (NahNspeNspe)4] (H-[Gly(N-(CH2)6NH2)][Nspe][Nspe][Gly(N-(CH2)6NH2)][Nspe][Nspe][Gly(N-(CH2)6NH2)][Nspe][Nspe][Gly(N-(CH2)6NH2)][Nspe][Nspe]-NH2; N-terminus assumed): the “MIC E. coli” value in assay [1] worked out at 25 µM. Also, the “MIC P. aeruginosa” value in assay [2] (setting [5]) was 50 µM. Besides, the “MIC S. epidermidis” value in assay [3] (setting [6]) amounted to 2 µM. Moreover, the “MIC S. aureus” value in assay [4] (setting [5]) is 2 µM.
Turning to `NCCNCC(=O)N(CC(=O)N(CC(=O)N(CCN)CC(=O)N(CC(=O)N(CC(N)=O)Cc1ccccc1)Cc1ccccc1)Cc1ccccc1)Cc1ccccc1` [Peptoid 9, (NaeNpheNphe)2] (H-[Gly(N-2-aminoethyl)][Nphe][Nphe][Gly(N-2-aminoethyl)][Nphe][Nphe]-NH2), the “MIC E. coli” value in assay [1] is over 100 µM. Besides, the “MIC P. aeruginosa” value was over 100 µM in assay [2] (ATCC 15692, 16 h) and 100 µM in assay [2] (setting [5]). Moreover, the “MIC S. epidermidis” value was over 100 µM in assay [3] (setting [7]) and 100 µM in assay [3] (setting [6]). Besides, the “MIC S. aureus” value was over 100 µM in assay [4] (ATCC9144, 16 h) and 100 µM in assay [4] (setting [5]).
For `NCCCCNCC(=O)N(CC(=O)N(CC(=O)N(CCCCN)CC(=O)N(CC(=O)N(CC(=O)N(CCCCN)CC(=O)N(CC(=O)N(CC(=O)N(CCCCN)CC(=O)N(CC(=O)N(CC(N)=O)Cc1ccc(F)cc1)Cc1ccc(F)cc1)Cc1ccc(F)cc1)Cc1ccc(F)cc1)Cc1ccc(F)cc1)Cc1ccc(F)cc1)Cc1ccc(F)cc1)Cc1ccc(F)cc1` [Peptoid 22, (NLysNpfbNpfb)4] (H-[Nlys][N(4-F-Bzl)Gly][N(4-F-Bzl)Gly][Nlys][N(4-F-Bzl)Gly][N(4-F-Bzl)Gly][Nlys][N(4-F-Bzl)Gly][N(4-F-Bzl)Gly][Nlys][N(4-F-Bzl)Gly][N(4-F-Bzl)Gly]-NH2), the “MIC E. coli” value in assay [1] was 13 µM. Moreover, the “MIC P. aeruginosa” value in assay [2] (setting [5]) came out at 25 µM. Moreover, the “MIC S. epidermidis” value in assay [3] (setting [6]) came to 1 µM. Moreover, the “MIC S. aureus” value in assay [4] (ATCC9144, 16 h) was found to be 2 µM; in assay [4] (setting [5]), 2 µM.
In the case of `NCCNCC(=O)N(CC(=O)N(CC(=O)N(CCN)CC(=O)N(CC(=O)N(CC(=O)N(CCN)CC(=O)N(CC(=O)N(CC(N)=O)Cc1ccccc1)Cc1ccccc1)Cc1ccccc1)Cc1ccccc1)Cc1ccccc1)Cc1ccccc1` [Peptoid 8, (NaeNpheNphe)3] (H-[Gly(N-2-aminoethyl)][Nphe][Nphe][Gly(N-2-aminoethyl)][Nphe][Nphe][Gly(N-2-aminoethyl)][Nphe][Nphe]-NH2), in assay [1], the “MIC E. coli” value was over 100 µM. In addition, the “MIC P. aeruginosa” value in assay [2] (ATCC 15692, 16 h) is over 100 µM; in assay [2] (setting [5]) it was 100 µM. Also, the “MIC S. epidermidis” value in assay [3] (setting [7]) was over 100 µM; in assay [3] (setting [6]), 100 µM. Moreover, the “MIC S. aureus” value in assay [4] (setting [5]) turned out to be 13 µM.
Turning to `C[C@@H](c1ccccc1)N(CC(N)=O)C(=O)CN(C(=O)CN(CCCCNC(=N)N)C(=O)CN(C(=O)CN(C(=O)CN(CCCCNC(=N)N)C(=O)CN(C(=O)CN(C(=O)CN(CCCCNC(=N)N)C(=O)CN(C(=O)CN(C(=O)CNCCCCNC(=N)N)[C@@H](C)c1ccccc1)[C@@H](C)c1ccccc1)[C@@H](C)c1ccccc1)[C@@H](C)c1ccccc1)[C@@H](C)c1ccccc1)[C@@H](C)c1ccccc1)[C@@H](C)c1ccccc1` [Peptoid 34, (NhArgNspeNspe)4] (H-[NhArg][Nspe][Nspe][NhArg][Nspe][Nspe][NhArg][Nspe][Nspe][NhArg][Nspe][Nspe]-NH2), the “MIC E. coli” value in assay [1] turned out to be 6 µM. For the same compound, the “MIC P. aeruginosa” value in assay [2] (setting [5]) was 13 µM. Besides, the “MIC S. epidermidis” value in assay [3] (setting [6]) turned out to be 1 µM. Also, the “MIC S. aureus” value in assay [4] (setting [5]) was determined as 1 µM.
Turning to `C[C@@H](c1ccccc1)N(CC(N)=O)C(=O)CN(C(=O)CN(CCCCN)C(=O)CN(C(=O)CN(C(=O)CN(CCCCN)C(=O)CN(C(=O)CN(C(=O)CNCCCCN)[C@@H](C)c1ccccc1)[C@@H](C)c1ccccc1)[C@@H](C)c1ccccc1)[C@@H](C)c1ccccc1)[C@@H](C)c1ccccc1` [Peptoid 14, (NLysNspeNspe)3] (H-[Nlys][Nspe][Nspe][Nlys][Nspe][Nspe][Nlys][Nspe][Nspe]-NH2), the “MIC E. coli” value in assay [1] is 13 µM. The “MIC P. aeruginosa” value in assay [2] (setting [5]) was over 100 µM. Further, the “MIC S. epidermidis” value in assay [3] (setting [6]) was 2 µM. The “MIC S. aureus” value in assay [4] (setting [5]) amounted to 2 µM.
For `C[C@@H](c1ccccc1)N(CC(N)=O)C(=O)CN(C(=O)CN(CCCCN)C(=O)CN(C(=O)CN(C(=O)CNCCCCN)[C@@H](C)c1ccccc1)[C@@H](C)c1ccccc1)[C@@H](C)c1ccccc1` [Peptoid 15, (NLysNspeNspe)2] (H-[Nlys][Nspe][Nspe][Nlys][Nspe][Nspe]-NH2), the “MIC E. coli” value in assay [1] was over 100 µM. In addition, the “MIC P. aeruginosa” value in assay [2] (ATCC 15692, 16 h) was over 100 µM; in assay [2] (setting [5]), 100 µM. Also, the “sensitivity of S. epidermidis (in words)” value in assay [3] (compared with the other bacteria tested) was “some increased sensitivity”. Moreover, the “MIC S. epidermidis” value in assay [3] (setting [6]) came to 25 µM. Also, the “MIC S. aureus” value was over 100 µM in assay [4] (ATCC9144, 16 h) and 100 µM in assay [4] (setting [5]).
For `NCCCCNCC(=O)N(CC(=O)N(CC(=O)N(CCCCN)CC(=O)N(CC(=O)N(CC(=O)N(CCCCN)CC(=O)N(CC(=O)N(CC(N)=O)Cc1cccc(F)c1)Cc1cccc(F)c1)Cc1cccc(F)c1)Cc1cccc(F)c1)Cc1cccc(F)c1)Cc1cccc(F)c1` [Peptoid 25, (NLysNmfbNmfb)3], the “MIC E. coli” value in assay [1] was 13 µM. Also, the “MIC P. aeruginosa” value in assay [2] (setting [5]) worked out at 25 µM. For the same compound, the “MIC S. epidermidis” value in assay [3] (setting [6]) came out at 2 µM. For the same compound, the “MIC S. aureus” value in assay [4] (setting [5]) was found to be 6 µM.
Turning to `COc1ccc(CN(CC(N)=O)C(=O)CN(Cc2ccc(OC)cc2)C(=O)CN(CCCCN)C(=O)CN(Cc2ccc(OC)cc2)C(=O)CN(Cc2ccc(OC)cc2)C(=O)CN(CCCCN)C(=O)CN(Cc2ccc(OC)cc2)C(=O)CN(Cc2ccc(OC)cc2)C(=O)CN(CCCCN)C(=O)CN(Cc2ccc(OC)cc2)C(=O)CN(Cc2ccc(OC)cc2)C(=O)CNCCCCN)cc1` [Peptoid 19, (NLysNpmbNpmb)4], in assay [1], the “activity against E. coli (in words)” value is “negligible effect” and the “MIC E. coli” value is over 100 µM. The “activity against P. aeruginosa (in words)” value in assay [2] was “negligible effect”. Also, the “MIC P. aeruginosa” value in assay [2] (ATCC 15692, 16 h) was over 100 µM. Further, in assay [2] (setting [5]), the “MIC P. aeruginosa” value turned out to be 100 µM. For the same compound, in assay [3] (setting [6]), the “MIC S. epidermidis” value was 2 µM. Moreover, in assay [4] (setting [5]), the “MIC S. aureus” value is 3 µM.
